Measured values: patent US8597903B2, “Biotinidase assay” (Wallac Oy, priority 2009, dated 2013)

Assays:
[1] = biological target: T1, biotinidase (Homo sapiens, UniProt P43251); test: Heterogenous biotinidase assay (DELFIA); format: biochemical; details: 10 nM substrate, blood spots, +37° C. for 2 hours, Eu signal by time-resolved fluorometer (FIG. 1-3)
T1 construct: The blood spots (diameter 3.2 mm) were punched to the wells; from tissue; host or cells: dried blood spots (whole blood)
T1 sequence (P43251 22-523): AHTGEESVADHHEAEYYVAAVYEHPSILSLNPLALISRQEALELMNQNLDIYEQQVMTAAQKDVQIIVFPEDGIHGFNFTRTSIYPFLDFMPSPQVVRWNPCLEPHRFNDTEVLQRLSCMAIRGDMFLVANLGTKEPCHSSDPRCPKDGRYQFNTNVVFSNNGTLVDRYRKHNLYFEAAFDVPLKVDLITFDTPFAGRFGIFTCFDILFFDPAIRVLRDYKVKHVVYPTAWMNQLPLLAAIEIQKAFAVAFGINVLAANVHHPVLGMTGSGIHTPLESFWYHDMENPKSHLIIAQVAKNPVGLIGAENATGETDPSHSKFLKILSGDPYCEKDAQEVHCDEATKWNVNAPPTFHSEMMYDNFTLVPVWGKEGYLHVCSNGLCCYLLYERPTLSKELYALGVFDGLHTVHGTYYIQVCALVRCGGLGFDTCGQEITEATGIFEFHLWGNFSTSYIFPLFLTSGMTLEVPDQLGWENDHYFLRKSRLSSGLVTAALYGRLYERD
Experimental: A heterogenous assay is based on the use of streptavidin-specific antibody, streptavidin and biotinidase substrates (compounds 3, 5 and 7). Accordingly, 200 μA of anti-streptavidin antibody (1 μg per well, Novus Biologicals cat. No. NB200-448) was pipetted to the wells of the microplate in coating buffer (50 mM TRIS pH 7.4+50 mM NaCl). The plate was incubated at RT for 3 h. After that the plate was washed 2 times with Delfia Wash solution. The blood spots (diameter 3.2 mm) were punched to the wells. 10 nM of biotinidase substrate was added to the wells in reaction buffer (50 mM MES pH 6, 0.05% BSA, 0.01% TWEEN, 50 mM NaCl). The plate was incubated with slow shaking at +37° C. for 2 hours. 100 μA 20 nM streptavidin in reaction buffer was added into the wells. The plate was incubated for 1 hour at RT with slow shaking. The plate was washed for 4 times with Delfia Wash solution. 200 μA of Delfia Inducer was added to the wells and incubated for 15 minutes at RT. The Eu signal was measured with a time-resolved fluorometer. The more there is biotinidase enzyme in the sample the lower the Eu signal is.

[2] = Storage stability of the substrate; format: physicochemical; details: prolonged storage at ambient temperature
Experimental: Biocytin (8, 5 mg, 13 μmol) and the isothiocyanate chelate 9 (23 mg, 33 μmol) synthesized as disclosed in U.S. Pat. No. 4,920,195, were dissolved in the mixture of pyridine, water and triethylamine (9:1.5:01, v/v/v; 250 μL) and the mixture was stirred overnight at rt. The product was isolated by precipitation with acetone and purified with HPLC. Compound 10: ESI-TOF MS found, 1047.13; calcd for C40H46EuN8O12S^−1047.18.

Compound | function as a substrate for the enzyme in a biotinidase assay [1] | stability on storage [2]
O=C(O)CN(CCN(CC(=O)O)CC(Cc1ccc(NC(=O)CCCCC2SCC3NC(=O)NC32)cc1)N(CC(=O)O)CC(=O)O)CC(=O)O (stereo not drawn) [Compound 3] | does not function as a substrate | 
O=C(O)CN(CCN(CC(=O)O)CC(Cc1ccc(NC(=O)CCCCCNC(=O)CCCCC2SCC3NC(=O)NC32)cc1)N(CC(=O)O)CC(=O)O)CC(=O)O (stereo not drawn) [Compound 5] | functions as a favorable substrate | 
O=C(O)CN(CC(=O)O)Cc1cc(C#Cc2ccc(NC(=S)NC(CCCCNC(=O)CCCCC3SCC4NC(=O)NC43)C(=O)O)cc2)cc(CN(CC(=O)O)CC(=O)O)n1 (stereo not drawn) [Compound 10] |  | prone to Edman degradation
